Source: patent publication US9927424B2, “Assays for identifying compounds that modulate bitter taste” (Chromocell Corporation, priority 2013, dated 2018)

Experiments:
Format in all cases: cell-based
TAS2R9 = target: T1, TAS2R9 (Homo sapiens, UniProt Q9NYW1); experiment: Calcium fluorescence functional assay, TAS2R9 cell line with mouse Gα15; settings: for TAS2R9 bitter receptor activity (functional response): 20 mM tastant, change in intracellular calcium; for EC50: approximately, increasing concentrations of tastant
T1 construct: expressed in transfected cells
T1 sequence (Q9NYW1 1-312): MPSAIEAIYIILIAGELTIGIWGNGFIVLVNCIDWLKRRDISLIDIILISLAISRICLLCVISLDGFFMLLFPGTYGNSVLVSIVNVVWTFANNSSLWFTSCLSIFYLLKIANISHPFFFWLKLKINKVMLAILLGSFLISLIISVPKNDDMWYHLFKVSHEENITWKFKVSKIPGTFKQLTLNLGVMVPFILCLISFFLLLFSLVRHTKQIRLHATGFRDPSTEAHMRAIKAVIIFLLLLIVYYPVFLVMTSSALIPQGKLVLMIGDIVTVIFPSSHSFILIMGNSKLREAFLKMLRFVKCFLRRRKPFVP
Experimental: (§1) A panel of cell lines expressing eight specific bitter taste receptors, a subset of the panel of twenty-five bitter receptors described in International Patent Application Publication WO 2010/088633 (see, e.g., Example 26), was used for the purpose of these analyses. Accordingly, each cell line of the panel expressed a human bitter taste receptor and mouse Gα15 signaling protein.
(§2) Each of the Examples below utilized the following functional assay: • Day 1: Stable cell lines were seeded onto black wall/clear bottom 96-well, plates (e.g., Corning, 3904). Approximately 40K cells were added per well and incubated at 37° C., 5% CO2 overnight in cell growth media (DMEM (Sigma, D5796) supplemented with 10% Fetal Bovine Serum (Sigma, 5178), 2 mM Glutamine (Sigma, G7513)). • Day 2: Growth media was discarded and cells were incubated at 37° C., 5% CO2 for 60 minutes in 100 ul of load solution containing 1× Ca-3 dye (Molecular Devices, R8090), 1% DMSO in buffer containing 130 mM NaCl, 2 mM CaCl2, 5 mM KCl, 1.2 mM MgCl2, 10 mM HEPES and 10 mM Glucose (pH 7.0). Probenecid was not included in the load solution. • Functional assay: After dye loading, cell plates were placed in a fluorescent plate reader (e.g., FDSS6000 (Hamamatsu, Japan)) and receptor stimulation was measured by adding 50 ul of 3× concentrated ligand/agonist stock. Fluorescence was monitored continuously for 10 s before agonist addition and for 100-250 s after stimulation with agonist.
(§3) Receptor Activation is defined as follows: • % Activation=[((Maximum signal fluorescence−Minimum signal fluorescence)−(Maximum control fluorescence−Minimum control fluorescence))/(Maximum buffer fluorescence−Minimum buffer fluorescence)]*100 • Functional Response=[(Maximum signal fluorescence−Minimum signal fluorescence)−(Maximum control fluorescence−Minimum control fluorescence)] • Signal fluorescence: refers to the change in fluorescence seen with addition of ligand • Control fluorescence: refers to the change in fluorescence seen with addition of buffer (negative control) • Calcium signals from ligand and control were normalized to the basal fluorescence of the cells prior to the stimulation.
(§4) A concentration analysis was performed and EC50 values were calculated by nonlinear regression using the formula: Y=Bottom+(Top−Bottom)/(1+10^((Log EC50−X)*Hill Slope)), X=log of dose or concentration, Y=Response (increasing as X increases), Top=maximum signal, Bottom=minimum signal. EC50 (half maximal effective concentration) refers to the molar concentration of the agonist which produces 50% of the maximum possible effective response from that agonist.

TAS2R4 = target: T2, TAS2R4 (Homo sapiens, UniProt Q9NYW5); experiment: Calcium fluorescence functional assay, TAS2R4 cell line with mouse Gα15; settings: for TAS2R4 bitter receptor activity (functional response): 20 mM tastant, change in intracellular calcium; for EC50: approximately, increasing concentrations of tastant
T2 construct: expressed in transfected cells
T2 sequence (Q9NYW5 1-299): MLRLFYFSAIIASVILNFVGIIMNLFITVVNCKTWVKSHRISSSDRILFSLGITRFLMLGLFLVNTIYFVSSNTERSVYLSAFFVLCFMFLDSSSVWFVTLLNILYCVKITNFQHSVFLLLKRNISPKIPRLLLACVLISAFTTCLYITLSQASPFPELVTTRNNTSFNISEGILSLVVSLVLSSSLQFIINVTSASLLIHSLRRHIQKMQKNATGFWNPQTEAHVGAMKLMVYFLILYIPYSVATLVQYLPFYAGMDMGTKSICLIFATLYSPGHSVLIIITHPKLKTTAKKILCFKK
Experimental: as §1, §2, §3, §4

TAS2R13 = target: T3, TAS2R13 (Homo sapiens, UniProt Q9NYV9); experiment: Calcium fluorescence functional assay, TAS2R13 cell line with mouse Gα15; settings: for TAS2R13 bitter receptor activity (functional response): 20 mM tastant, change in intracellular calcium; for EC50: approximately, increasing concentrations of tastant
T3 construct: expressed in transfected cells
T3 sequence (Q9NYV9 1-303): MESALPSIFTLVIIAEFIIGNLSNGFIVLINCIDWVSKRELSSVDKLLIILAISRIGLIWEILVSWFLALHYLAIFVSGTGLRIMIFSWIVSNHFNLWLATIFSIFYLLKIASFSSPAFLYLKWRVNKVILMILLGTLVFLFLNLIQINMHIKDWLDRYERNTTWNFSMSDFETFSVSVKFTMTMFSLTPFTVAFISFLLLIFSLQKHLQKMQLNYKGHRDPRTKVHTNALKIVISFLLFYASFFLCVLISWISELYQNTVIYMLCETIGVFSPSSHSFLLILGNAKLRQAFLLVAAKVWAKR
Experimental: as §1, §2, §3, §4

TAS2R44 = target: T4, TAS2R44 (Homo sapiens, UniProt P59538); experiment: Calcium fluorescence functional assay, TAS2R44 cell line with mouse Gα15; settings: for TAS2R44 bitter receptor activity (functional response): 20 mM tastant, change in intracellular calcium; for EC50: approximately, increasing concentrations of tastant
T4 construct: expressed in transfected cells
T4 sequence (P59538 1-309): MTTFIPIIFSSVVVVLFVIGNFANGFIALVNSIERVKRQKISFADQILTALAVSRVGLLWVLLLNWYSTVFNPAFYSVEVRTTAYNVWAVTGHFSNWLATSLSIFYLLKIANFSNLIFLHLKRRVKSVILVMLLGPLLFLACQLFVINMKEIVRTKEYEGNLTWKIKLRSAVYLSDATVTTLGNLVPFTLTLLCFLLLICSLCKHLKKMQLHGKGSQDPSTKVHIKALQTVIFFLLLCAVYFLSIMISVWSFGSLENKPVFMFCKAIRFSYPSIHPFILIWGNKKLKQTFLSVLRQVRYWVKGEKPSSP
Experimental: as §1, §2, §3, §4

TAS2R14 = target: T5, TAS2R14 (Homo sapiens, UniProt Q9NYV8); experiment: Calcium fluorescence functional assay, TAS2R14 cell line with mouse Gα15; settings: for TAS2R14 bitter receptor activity (functional response): 20 mM tastant, change in intracellular calcium; for EC50: approximately, increasing concentrations of tastant
T5 construct: expressed in transfected cells
T5 sequence (Q9NYV8 1-317): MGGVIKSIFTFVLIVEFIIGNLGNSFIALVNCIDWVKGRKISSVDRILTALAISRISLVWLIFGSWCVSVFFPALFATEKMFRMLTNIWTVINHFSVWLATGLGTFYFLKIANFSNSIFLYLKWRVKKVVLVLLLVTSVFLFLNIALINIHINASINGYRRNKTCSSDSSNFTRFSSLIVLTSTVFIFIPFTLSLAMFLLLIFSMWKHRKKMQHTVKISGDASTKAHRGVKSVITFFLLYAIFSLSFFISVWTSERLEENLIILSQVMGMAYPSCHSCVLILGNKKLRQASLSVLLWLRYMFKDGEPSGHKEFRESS
Experimental: as §1, §2, §3, §4

Structure (SMILES)	TAS2R9 bitter receptor activity (functional response) (TAS2R9)	EC50 (TAS2R9)	TAS2R4 bitter receptor activity (functional response) (TAS2R4)	EC50 (TAS2R4)	TAS2R13 bitter receptor activity (functional response) (TAS2R13)	EC50 (TAS2R13)	TAS2R44 bitter receptor activity (functional response) (TAS2R44)	EC50 (TAS2R44)	TAS2R14 bitter receptor activity (functional response) (TAS2R14)	EC50 (TAS2R14)
CC(=O)[O-].[K+] [potassium acetate]	induced	5 to 10 mM	induced	5 to 10 mM	induced	5 to 10 mM	induced	5 to 10 mM	induced	5 to 10 mM
O=C([O-])c1ccccc1.[K+] [potassium benzoate]	induced	5 to 10 mM	induced	5 to 10 mM	induced	5 to 10 mM	induced	5 to 10 mM	induced	5 to 10 mM
O=C([O-])[C@H](O)[C@@H](O)[C@H](O)[C@H](O)CO.[K+] [potassium gluconate]	induced		induced		induced		induced		induced	
O=[N+]([O-])[O-].[K+] [potassium nitrate]	induced		induced		induced		induced		induced	
O=P([O-])([O-])O.[K+].[K+] [potassium phosphate (dibasic)]	induced		induced		induced		induced		induced	
C/C=C/C=C/C(=O)[O-].[K+] [potassium sorbate]	induced		induced		induced		induced		induced	
O=S(=O)([O-])[O-].[K+].[K+] [potassium sulfate]	induced		induced		induced		induced		induced	
